Measured values from article PMC7058665, “GPU-Accelerated Discovery of Pathogen-Derived Molecular Mimics of a T-Cell Insulin Epitope” (Frontiers in Immunology, 2020).
Where no end group is shown, it is not given here.

Tested on: InsB4 T-cell clone
Type: cell-based, human
Settings: not given
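Note: T-cell clone rested overnight in 5% FBS medium, then cultured overnight with peptide titrations, MIP-1β released into supernatant measured by ELISA.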

Point of comparison: LLLERYFLA, EC50 66 nM. Against it:
- ALVENQFLL — 33-fold higher, 2200 nM
- EMLERGLLV — 24-fold higher, 1600 nM
- FILEGILTV — within 1.5-fold, 54 nM
- FLIEGVLTI — within 1.5-fold, 55 nM
- FLTEWILPL — 88-fold higher, 5800 nM
- FLVEQVLFA — 50-fold higher, 3300 nM
- IITEGIMTL — 89-fold higher, 5900 nM
- IIVEDSLLV — 60-fold lower, 1.1 nM
- ILIEGILFF — 72-fold lower, 0.92 nM
- ILIERGLTF — 1200-fold higher, 79000 nM
- ILLENGYLL — 9.1-fold higher, 600 nM
- IMYEGLLFV — within 1.5-fold, 70 nM
- ITIERILTI — 27-fold higher, 1800 nM
- IVLEGAMIV — 2-fold higher, 130 nM
- LIEERSPLI — 92-fold higher, 6100 nM
- LILERSPTA — 200-fold higher, 13000 nM
- LILQGVLTM — 39-fold higher, 2600 nM
- LLEENSPML — within 1.5-fold, 50 nM
- LLIENFVTG — 85-fold higher, 5600 nM
- LLIIGGLLF — 4.4-fold higher, 290 nM
- LLLERMFLF — 21-fold higher, 1400 nM
- LLVEDLLVL — 3-fold higher, 200 nM
- LLVEGALTG — 9.7-fold higher, 640 nM
- LLVEGAMTV — 1.6-fold lower, 42 nM
- LLVENWPLL — 28-fold lower, 2.4 nM
- LLVERQLVL — 100-fold higher, 6600 nM
- LMLENLLTF — 33-fold higher, 2200 nM
- LMLERGFII — 14-fold higher, 950 nM
- LMVENVPFA — 1300-fold lower, 0.052 nM
- LQVEGAMSV — 3.6-fold higher, 240 nM
- LQVENYLPI — 2.4-fold lower, 27 nM
- LQVIRILLA — 39-fold higher, 2600 nM
- LTVEGIFRV — 24-fold higher, 1600 nM
- LVLEDILLA — 21-fold higher, 1400 nM
- MIVEGFLLL — within 1.5-fold, 59 nM
- MIVENVPLL — 390-fold lower, 0.17 nM
- MLIEGVLTV — 6.6-fold lower, 10 nM
- MLIERVMST — 85-fold higher, 5600 nM
- MLVEEGLLV — within 1.5-fold, 97 nM
- MLVEGVLLA — within 1.5-fold, 55 nM
- MLVEWALVA — within 1.5-fold, 54 nM
- MLYENWLLS — 29-fold higher, 1900 nM
- MQLENGLLL — 10-fold lower, 6.3 nM

Same assay, conditions: 20 top-scoring fungal peptides, Figure 8; overnight, MIP-1β ELISA; NR = no T-cell response; read-out: EC50 of peptide activation of InsB4

Point of comparison: LVVEGSLFV, EC50 340 nM. Against it:
- CC(C)C[C@H](NC(=O)[C@H](C)NC(=O)[C@H](CCC(=O)O)NC(=O)[C@@H](NC(=O)[C@H](CC(C)C)NC(=O)[C@@H](N)Cc1c[nH]cn1)C(C)C)C(=O)N[C@@H](Cc1ccc(O)cc1)C(=O)N[C@@H](CC(C)C)C(=O)N[C@H](C(=O)O)C(C)C [reference compound] — 3.2-fold higher, 1100 nM
- FLLERILIV — 2.8-fold higher, 960 nM
- ILVERALFT [top-scoring fungal peptide] — higher, > 10000 nM
- IMLENGPFL [top-scoring fungal peptide] — higher, > 10000 nM
- IQLENSLFA — 26-fold higher, 8900 nM
- LIIEWIFFL — 2.3-fold lower, 150 nM
- LIIEWYLIM — 2.5-fold higher, 860 nM
- LILENYMFA — 2.6-fold higher, 880 nM
- LLVEDMLLM — within 1.5-fold, 390 nM
- LQLEGQLLL — 11-fold higher, 3900 nM
- MIIEGFLLI — 2.6-fold lower, 130 nM
- MLLEGMMIV — 3.1-fold lower, 110 nM
- MQVEWILTF — 35-fold higher, 12000 nM

Same assay, conditions: overnight, MIP-1β ELISA

In the case of “ILLEGILIL [bacterial protein-derived nonamer peptide, Bin 2]”, the “agonist activity on InsB4 in words (relative to index HLVEALYLV)” value is reported as “most potent”.
